Test results taken from patent US10633407B2, “14-membered ketolides and methods of their preparation and use” (President and Fellows of Harvard College, priority 2014, dated 2020).
In brackets after ≈: the same amount, converted by molar mass.

Key:
Assay type in all cases: cell-based
[1] = system: strains of B. subtilis, E. coli, S. aureus, S. pneumoniae, and H. influenzae, including several multidrug-resistant strains; assay: CLSI broth dilution MIC determination, whole panel of strains; conditions: from MIC data, Tables B1-B13
From the text: MIC data was collected for the novel macrolides that this platform has produced against over 21 unique strains of B. subtilis, E. coli, S. aureus, S. pneumoniae, and H. influenzae, including several multidrug-resistant strains, with a special focus on macrolide resistant mechanisms (vide supra). Azithromycin (Azithro) and Solithromycin (Solithro) were included as a control macrolides in many cases. CLSI standard procedures for broth dilution MIC determination were used. […] These genotypes can be constitutive or inducible.

[2] = system: S. pneumoniae mef A genotype (first strain so labelled); assay: CLSI broth dilution MIC determination; conditions: Streptococcus pneumoniae, first strain (MP-626 UNT-038)
How it was run: (§1)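 MICs measured following CLSI broth dilution methodology. The strains tested include macrolide-resistant and multidrug-resistant isolates whose resistance genotypes can be constitutive or inducible.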

[3] = system: K. pneumoniae MP-546 Clinical-MDR; assay: CLSI broth dilution MIC determination; conditions: Klebsiella pneumoniae, read-out: MIC
[4] = system: P. aeruginosa MP-8 PAO1:mex (mex-oprM-deletion); assay: CLSI broth dilution MIC determination; conditions: Pseudomonas aeruginosa, PAO1
[5] = system: A. baumannii MP-577 Clinical-AZT low; assay: CLSI broth dilution MIC determination; conditions: Acinetobacter baumannii, read-out: MIC
[6] = system: A. baumannii MP-576 Clinical-MDR; assay: CLSI broth dilution MIC determination; conditions: Acinetobacter baumannii, read-out: MIC
E. coli MP-541 clinical = assay: CLSI broth dilution MIC determination; conditions: Escherichia coli, MP541CLINICAL, read-out: MIC
How it was run: as §1

[7] = system: E. coli MP-532 clinical-cErmB; assay: CLSI broth dilution MIC determination; conditions: Escherichia coli
How it was run: as §1

[8] = system: S. aureus (MRSA) MP-513 ST-228 cErm (Clinical-cErm); assay: CLSI broth dilution MIC determination; conditions: Staphylococcus aureus, read-out: MIC
How it was run: as §1

[9] = system: S. aureus MP-17 ATCCBAA-977 (BAA 977 iErm); assay: CLSI broth dilution MIC determination; conditions: Staphylococcus aureus
How it was run: as §1

[10] = system: K. pneumoniae MP-548 clinical; assay: CLSI broth dilution MIC determination; conditions: Klebsiella pneumoniae, MP548CLINICAL, read-out: MIC
P. aeruginosa MP-7 PAO1 = assay: CLSI broth dilution MIC determination; conditions: Pseudomonas aeruginosa, read-out: MIC

With `CC[C@H]1OC(=O)[C@@](C)(F)C(=O)[C@H](C)[C@@H](O[C@@H]2OC(C)CC(N(C)C)C2O)[C@](C)(OC)C[C@@H](C)C(=O)[C@H](C)[C@H]2N(CC#CCn3cc(-c4cccc(N)c4)nn3)C(=O)O[C@]12C` (stereo partly drawn) [FSM-100426] the “potency compared with solithromycin” value [1] was “more potent” and the MIC [2] was under 0.0312 µg/mL.
In the case of `CC[C@H]1OC(=O)[C@@](C)(F)C(=O)[C@H](C)[C@@H](OC2OC(C)CC(N(C)C)C2O)[C@](C)(OC)C[C@@H](C)C(=O)[C@H](C)[C@H]2N(CCCCn3cc(-c4cccc(N)c4)nn3)C(=O)O[C@]12C` (stereo partly drawn) [Solithro, solithromycin, reference compound], the MIC [3] is reported as over 32 µg/mL, the MIC [4] is reported as 8 µg/mL (≈ 9.47 µM) and the MIC [5] is reported as 32 µg/mL (≈ 37.9 µM). It also gave an MIC [6] of over 32 µg/mL, an MIC (E. coli MP-541 clinical) of 16 µg/mL (≈ 18.9 µM) and an MIC [7] of over 32 µg/mL. The MIC [8] was over 32 µg/mL, the MIC [9] was 0.125 µg/mL (≈ 0.148 µM) and the MIC [10] was 32 µg/mL (≈ 37.9 µM). For the same molecule, the MIC (P. aeruginosa MP-7 PAO1) was over 32 µg/mL.
